Biological target: mutant PAN-I38T endonuclease (Influenza A virus, UniProt P03433, I38T)
Format: biochemical, influenza A type virus (H1N1)

Row | SMILES | inhibition of the endonuclease activity of PAN-I38T (in words)
1 | C[C@]12C=CC(=O)N[C@@H]1CC[C@@H]1[C@@H]2CC[C@]2(C)[C@@H](C(=O)Nc3cc(C(F)(F)F)ccc3C(F)(F)F)CC[C@@H]12 [dutasteride] | no inhibition
2 | CS(=O)(=O)c1cccc(C[C@H](NC(=O)c2c(Cl)cc3c(c2Cl)CCN(C(=O)c2ccc4ccoc4c2)C3)C(=O)O)c1 [lifitegrast] | inhibitory effect
3 | CO[C@H]1/C=C/O[C@@]2(C)Oc3c(C)c(O)c4c(O)c(c5c(nc6cc(C)ccn65)c4c3C2=O)NC(=O)/C(C)=C\C=C\[C@H](C)[C@H](O)[C@@H](C)[C@@H](O)[C@@H](C)[C@H](OC(C)=O)[C@@H]1C [rifaximin] | no inhibition
4 | CC(C)(C)NC(=O)[C@@H]1C[C@@H]2CCCC[C@@H]2CN1C[C@@H](O)[C@H](Cc1ccccc1)NC(=O)[C@H](CC(N)=O)NC(=O)c1ccc2ccccc2n1 [saquinavir] | no inhibition
5 | O=C1[C@@H]2[C@H]3CC[C@H](C3)[C@@H]2C(=O)N1C[C@@H]1CCCC[C@H]1CN1CCN(c2nsc3ccccc23)CC1 [lurasidone] | no inhibition
